According to ChEMBL document CHEMBL1150098, “Makaluvamines H-M and damirone C from the pohnpeian sponge Zyzzya fuliginosa” (J Nat Prod, 1995):
The source made the active and inactive calls. No cut-off for these calls is given here.

Key:
[1] = molecular target: DNA topoisomerase 2-alpha (Homo sapiens) (UniProt P11388); assay: Inhibition of DNA topoisomerase 2
[2] = test system: HCT-116; assay: Cytotoxicity against human HCT116 cells; format: functional, cell-based

Sequence of DNA topoisomerase 2-alpha (Homo sapiens) (P11388 whole entry): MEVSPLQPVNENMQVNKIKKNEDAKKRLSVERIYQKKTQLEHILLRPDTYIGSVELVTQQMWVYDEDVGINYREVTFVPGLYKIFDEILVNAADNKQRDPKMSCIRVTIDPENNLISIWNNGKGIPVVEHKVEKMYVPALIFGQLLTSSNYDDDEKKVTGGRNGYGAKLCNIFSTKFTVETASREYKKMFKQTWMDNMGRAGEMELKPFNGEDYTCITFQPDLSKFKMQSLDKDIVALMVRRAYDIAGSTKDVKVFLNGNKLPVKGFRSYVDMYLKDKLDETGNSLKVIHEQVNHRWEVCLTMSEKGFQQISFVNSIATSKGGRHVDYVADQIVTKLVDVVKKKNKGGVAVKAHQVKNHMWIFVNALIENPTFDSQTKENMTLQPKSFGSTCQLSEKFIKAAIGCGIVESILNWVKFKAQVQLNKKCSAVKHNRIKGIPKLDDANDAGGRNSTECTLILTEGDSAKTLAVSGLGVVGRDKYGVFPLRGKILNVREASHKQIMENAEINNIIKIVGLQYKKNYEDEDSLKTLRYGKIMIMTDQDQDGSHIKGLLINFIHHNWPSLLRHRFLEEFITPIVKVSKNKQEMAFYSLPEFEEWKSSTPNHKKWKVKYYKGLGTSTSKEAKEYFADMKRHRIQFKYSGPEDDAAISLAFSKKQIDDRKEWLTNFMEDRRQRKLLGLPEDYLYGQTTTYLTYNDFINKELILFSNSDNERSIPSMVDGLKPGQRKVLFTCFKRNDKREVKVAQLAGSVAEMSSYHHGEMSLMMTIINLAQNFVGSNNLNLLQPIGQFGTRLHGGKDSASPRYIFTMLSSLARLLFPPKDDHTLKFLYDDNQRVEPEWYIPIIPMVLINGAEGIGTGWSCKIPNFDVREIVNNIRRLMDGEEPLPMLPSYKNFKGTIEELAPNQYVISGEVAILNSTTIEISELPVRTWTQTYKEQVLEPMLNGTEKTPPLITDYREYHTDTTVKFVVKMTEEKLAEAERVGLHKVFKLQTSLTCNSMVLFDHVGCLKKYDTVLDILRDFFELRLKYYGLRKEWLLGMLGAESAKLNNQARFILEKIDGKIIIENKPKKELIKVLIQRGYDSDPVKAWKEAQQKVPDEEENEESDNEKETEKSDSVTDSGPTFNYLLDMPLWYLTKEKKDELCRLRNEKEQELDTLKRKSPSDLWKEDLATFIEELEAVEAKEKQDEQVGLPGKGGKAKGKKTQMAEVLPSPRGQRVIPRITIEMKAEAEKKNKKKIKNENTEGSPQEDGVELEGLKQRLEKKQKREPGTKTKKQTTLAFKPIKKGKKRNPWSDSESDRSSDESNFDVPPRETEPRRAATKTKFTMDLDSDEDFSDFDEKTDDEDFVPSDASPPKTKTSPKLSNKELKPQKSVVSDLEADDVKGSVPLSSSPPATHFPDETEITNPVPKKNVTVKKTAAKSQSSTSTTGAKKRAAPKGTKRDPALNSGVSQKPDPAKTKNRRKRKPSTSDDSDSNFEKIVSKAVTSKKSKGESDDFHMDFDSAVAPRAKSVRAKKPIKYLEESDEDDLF

| Structure (SMILES) | Activity [1] | Activity [2] |
| --- | --- | --- |
| Cn1cc2c3c1C(=O)C(N)=CC3=[N+](C)CC2 | inactive | Active |
| C[N+]1=C2C=C(N/C=C/c3ccc(O)cc3)C(=O)c3[nH]cc(c32)CC1 | inactive | Active |
| Cn1cc2c3c1C(=O)C(NCCc1ccc(O)cc1)=CC3=NCC2 | inactive | Active |
| O=C1C(NC2Cc3cc(Br)c(O)cc3S2)=CC2=NCCc3c[nH]c1c32 (stereo not drawn) | Active | Active |
| O=C1C(NCCc2ccc(O)cc2)=CC2=NCCc3c[nH]c1c32 | inactive | Active |
| C[N+]1=C2C=C(N)C(=O)c3[nH]cc(c32)CC1 | Active | Active |
| O=C1C(N/C=C/c2ccc(O)cc2)=CC2=NCCc3c[nH]c1c32 | inactive | Active |
| Cn1cc2c3c1C(=O)C(N/C=C/c1ccc(O)cc1)=CC3=NCC2 | Active | Active |
| Cn1cc2c3c1C(=O)C(N/C=C/c1ccc(O)cc1)=CC3=[N+](C)CC2 | inactive | Active |
| Cn1cc2c3c1C(=O)C(N)=CC3=NCC2 | Active | Active |
| NC1=CC2=NCCc3c[nH]c(c32)C1=O | – | Active |
| C[N+]1=C2C=C(NCCc3ccc(O)cc3)C(=O)c3[nH]cc(c32)CC1 | inactive | Active |
